What was measured:
[1] = Drug level in brain of Abcb1a/1b;Abcg2 (-/-) FVB mouse at 10 mg/kg, po after 4 hrs by liquid chromatography-tandem mass spectrometry; assay type: ADME, organism-based; parameters: dose 10 mg/kg, route oral; conditions: read-out: Drug uptake
[2] = Drug level in brain of Abcb1a/1b (-/-) FVB mouse at 10 mg/kg, po after 4 hrs by liquid chromatography-tandem mass spectrometry; assay type: ADME, organism-based; parameters: dose 10 mg/kg, route oral; conditions: read-out: Drug uptake
[3] = Drug level in brain of Abcg2 (-/-) FVB mouse at 10 mg/kg, po after 4 hrs by liquid chromatography-tandem mass spectrometry; assay type: ADME, organism-based; parameters: dose 10 mg/kg, route oral; conditions: read-out: Drug uptake
[4] = Drug level in brain of FVB mouse at 10 mg/kg, po after 4 hrs by liquid chromatography-tandem mass spectrometry; assay type: ADME, organism-based; parameters: dose 10 mg/kg, route oral; conditions: read-out: Drug uptake
[5] = AUC (0 to 4 hrs) in Abcb1a/1b;Abcg2 (-/-) FVB mouse plasma at 10 mg/kg, po by liquid chromatography-tandem mass spectrometry; assay type: ADME, organism-based; parameters: time < 4 hr, dose 10 mg/kg, route oral
[6] = AUC (0 to 4 hrs) in Abcb1a/1b (-/-) FVB mouse plasma at 10 mg/kg, po by liquid chromatography-tandem mass spectrometry; assay type: ADME, organism-based; parameters: time < 4 hr, dose 10 mg/kg, route oral
[7] = AUC (0 to 4 hrs) in FVB mouse plasma at 10 mg/kg, po by liquid chromatography-tandem mass spectrometry; assay type: ADME, organism-based; parameters: time < 4 hr, dose 10 mg/kg, route oral
[8] = AUC (0 to 4 hrs) in Abcg2 (-/-) FVB mouse plasma at 10 mg/kg, po by liquid chromatography-tandem mass spectrometry; assay type: ADME, organism-based; parameters: time < 4 hr, dose 10 mg/kg, route oral
Brain [9] = test: Drug level in brain of Abcg2 (-/-) FVB mouse at 10 mg/kg, po after 1 hr by liquid chromatography-tandem mass spectrometry relative to wild type FVB mouse; assay type: ADME, organism-based; parameters: dose 10 mg/kg, route oral; conditions: in vivo
Brain [10] = test: Drug level in brain of Abcb1a/1b (-/-) FVB mouse at 10 mg/kg, po after 1 hr by liquid chromatography-tandem mass spectrometry relative to wild type FVB mouse; assay type: ADME, organism-based; parameters: dose 10 mg/kg, route oral; conditions: in vivo
Brain [11] = test: Drug level in brain of Abcb1a/1b;Abcg2 (-/-) FVB mouse at 10 mg/kg, po after 1 hr by liquid chromatography-tandem mass spectrometry relative to wild type FVB mouse; assay type: ADME, organism-based; parameters: dose 10 mg/kg, route oral; conditions: in vivo
Brain [12] = test: Drug level in brain of Abcg2 (-/-) FVB mouse at 10 mg/kg, po after 4 hrs by liquid chromatography-tandem mass spectrometry relative to wild type FVB mouse; assay type: ADME, organism-based; parameters: dose 10 mg/kg, route oral; conditions: in vivo
Brain [13] = test: Drug level in brain of Abcb1a/1b (-/-) FVB mouse at 10 mg/kg, po after 4 hrs by liquid chromatography-tandem mass spectrometry relative to wild type FVB mouse; assay type: ADME, organism-based; parameters: dose 10 mg/kg, route oral; conditions: in vivo
Brain [14] = test: Drug level in brain of Abcb1a/1b;Abcg2 (-/-) FVB mouse at 10 mg/kg, po after 4 hrs by liquid chromatography-tandem mass spectrometry relative to wild type FVB mouse; assay type: ADME, organism-based; parameters: dose 10 mg/kg, route oral; conditions: in vivo
[15] = Drug transport in MDCK2 cells at 1 uM after 1 to 4 hrs in presence of 5 uM ABCB1 inhibitor zosuquidar; assay type: ADME, cell-based, Canis lupus familiaris; conditions: dog, mdck-ii
[16] = Efflux ratio in wild type MDCK2 cells at 1 uM after 1 to 4 hrs; assay type: ADME, cell-based, Canis lupus familiaris, MDCK-II; conditions: dog, MDCK
[17] = Drug transport in MDCK2 cells at 1 uM after 1 to 4 hrs in presence of 5 uM ABCB1/ABCG2 inhibitor elacridar; assay type: ADME, cell-based, Canis lupus familiaris; conditions: dog, mdck-ii
ABCB1 = ABCB1 (Homo sapiens, UniProt P08183); test: Drug transport in MDCK2 cells expressing human ABCB1 assessed as transporter-mediated efflux ratio at 1 uM after 1 to 4 hrs; assay type: ADME, cell-based; conditions: MDCK-MDR1
Chain of ABCB1 (P08183 whole entry): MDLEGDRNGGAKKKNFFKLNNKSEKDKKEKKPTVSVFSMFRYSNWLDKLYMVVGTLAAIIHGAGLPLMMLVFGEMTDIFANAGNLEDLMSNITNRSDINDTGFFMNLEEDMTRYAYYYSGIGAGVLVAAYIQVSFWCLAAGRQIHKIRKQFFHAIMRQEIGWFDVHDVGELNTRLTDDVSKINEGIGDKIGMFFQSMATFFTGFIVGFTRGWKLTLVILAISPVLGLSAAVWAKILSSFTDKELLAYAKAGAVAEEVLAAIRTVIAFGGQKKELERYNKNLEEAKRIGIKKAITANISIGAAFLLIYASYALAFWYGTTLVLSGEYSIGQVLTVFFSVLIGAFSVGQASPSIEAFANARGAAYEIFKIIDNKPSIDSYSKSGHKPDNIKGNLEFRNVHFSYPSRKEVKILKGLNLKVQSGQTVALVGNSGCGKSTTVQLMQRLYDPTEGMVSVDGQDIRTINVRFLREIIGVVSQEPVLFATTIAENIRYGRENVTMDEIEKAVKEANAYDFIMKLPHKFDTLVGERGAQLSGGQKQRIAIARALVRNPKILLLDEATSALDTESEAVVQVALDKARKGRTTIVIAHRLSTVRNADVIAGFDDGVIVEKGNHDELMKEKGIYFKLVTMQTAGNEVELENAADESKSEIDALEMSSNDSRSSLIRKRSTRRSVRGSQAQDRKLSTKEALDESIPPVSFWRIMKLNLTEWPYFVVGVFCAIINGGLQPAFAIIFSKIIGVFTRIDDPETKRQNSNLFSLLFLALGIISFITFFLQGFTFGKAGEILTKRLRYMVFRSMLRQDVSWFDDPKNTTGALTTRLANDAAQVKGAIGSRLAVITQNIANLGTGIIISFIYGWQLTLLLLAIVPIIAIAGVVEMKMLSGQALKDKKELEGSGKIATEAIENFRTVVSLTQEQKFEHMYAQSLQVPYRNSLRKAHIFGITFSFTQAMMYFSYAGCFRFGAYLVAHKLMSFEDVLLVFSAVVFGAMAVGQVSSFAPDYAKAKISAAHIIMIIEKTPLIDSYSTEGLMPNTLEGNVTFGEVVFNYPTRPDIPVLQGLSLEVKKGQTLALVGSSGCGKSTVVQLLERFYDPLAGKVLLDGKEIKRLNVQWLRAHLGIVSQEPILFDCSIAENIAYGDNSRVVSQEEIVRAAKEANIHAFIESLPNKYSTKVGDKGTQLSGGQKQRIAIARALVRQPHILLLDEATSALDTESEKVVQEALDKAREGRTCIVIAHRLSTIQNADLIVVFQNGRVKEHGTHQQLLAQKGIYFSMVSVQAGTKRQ

ABCG2 = molecular target: T1, ABCG2 (Homo sapiens, UniProt Q9UNQ0); test: Drug transport in MDCK2 cells expressing human ABCG2 assessed as transporter-mediated efflux ratio at 1 uM after 1 to 4 hrs; assay type: ADME, cell-based
T1 sequence (Q9UNQ0 whole entry): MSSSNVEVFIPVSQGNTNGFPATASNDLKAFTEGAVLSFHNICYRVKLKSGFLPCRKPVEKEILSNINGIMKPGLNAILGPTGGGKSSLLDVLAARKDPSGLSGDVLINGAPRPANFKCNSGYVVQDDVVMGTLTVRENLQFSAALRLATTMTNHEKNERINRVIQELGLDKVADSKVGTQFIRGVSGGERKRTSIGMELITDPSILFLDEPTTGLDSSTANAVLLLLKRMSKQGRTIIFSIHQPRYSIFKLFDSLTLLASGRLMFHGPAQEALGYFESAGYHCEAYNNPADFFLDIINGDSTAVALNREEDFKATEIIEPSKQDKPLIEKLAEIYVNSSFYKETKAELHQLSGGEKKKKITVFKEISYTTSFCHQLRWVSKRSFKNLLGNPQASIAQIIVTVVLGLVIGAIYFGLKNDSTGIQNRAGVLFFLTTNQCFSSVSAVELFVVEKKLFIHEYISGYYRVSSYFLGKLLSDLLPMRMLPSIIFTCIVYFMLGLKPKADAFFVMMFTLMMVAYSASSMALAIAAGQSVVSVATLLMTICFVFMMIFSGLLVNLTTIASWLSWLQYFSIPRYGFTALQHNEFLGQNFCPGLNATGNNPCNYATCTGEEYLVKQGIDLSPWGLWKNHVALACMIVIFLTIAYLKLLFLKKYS

[18] = molecular target: T2, Broad substrate specificity ATP-binding cassette transporter ABCG2 (Mus musculus, UniProt Q7TMS5); test: Drug transport in MDCK2 cells expressing mouse ABCG2 assessed as transporter-mediated efflux ratio at 1 uM after 1 to 4 hrs; assay type: ADME, cell-based; conditions: mdck2, 1 µM
T2 sequence (Q7TMS5 whole entry): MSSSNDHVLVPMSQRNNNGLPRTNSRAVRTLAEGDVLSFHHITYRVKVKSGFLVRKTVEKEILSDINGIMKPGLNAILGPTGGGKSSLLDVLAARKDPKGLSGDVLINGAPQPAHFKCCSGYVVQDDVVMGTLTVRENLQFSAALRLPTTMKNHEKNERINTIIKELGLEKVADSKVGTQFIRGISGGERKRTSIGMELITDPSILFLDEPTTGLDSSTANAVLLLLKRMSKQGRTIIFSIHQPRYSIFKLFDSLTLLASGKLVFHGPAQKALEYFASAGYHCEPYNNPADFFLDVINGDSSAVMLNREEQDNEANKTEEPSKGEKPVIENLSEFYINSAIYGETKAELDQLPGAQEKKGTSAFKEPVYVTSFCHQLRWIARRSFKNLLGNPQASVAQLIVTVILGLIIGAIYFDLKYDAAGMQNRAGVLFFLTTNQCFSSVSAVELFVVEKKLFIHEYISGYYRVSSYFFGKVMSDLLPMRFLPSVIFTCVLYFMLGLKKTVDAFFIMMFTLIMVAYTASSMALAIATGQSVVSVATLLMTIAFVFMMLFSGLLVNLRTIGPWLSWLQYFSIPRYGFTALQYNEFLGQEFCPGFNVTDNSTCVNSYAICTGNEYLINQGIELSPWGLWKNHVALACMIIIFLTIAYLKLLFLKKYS

[19] = AUC (0 to 1 hr) in FVB mouse plasma at 10 mg/kg, po by liquid chromatography-tandem mass spectrometry; assay type: ADME, organism-based; parameters: time < 1 hr, dose 10 mg/kg, route oral
[20] = AUC (0 to 1 hr) in Abcg2 (-/-) FVB mouse plasma at 10 mg/kg, po by liquid chromatography-tandem mass spectrometry; assay type: ADME, organism-based; parameters: time < 1 hr, dose 10 mg/kg, route oral
[21] = AUC (0 to 1 hr) in Abcb1a/1b (-/-) FVB mouse plasma at 10 mg/kg, po by liquid chromatography-tandem mass spectrometry; assay type: ADME, organism-based; parameters: time < 1 hr, dose 10 mg/kg, route oral
[22] = AUC (0 to 1 hr) in Abcb1a/1b;Abcg2 (-/-) FVB mouse plasma at 10 mg/kg, po by liquid chromatography-tandem mass spectrometry; assay type: ADME, organism-based; parameters: time < 1 hr, dose 10 mg/kg, route oral
[23] = Drug level in brain of Abcg2 (-/-) FVB mouse at 10 mg/kg, po after 1 hr by liquid chromatography-tandem mass spectrometry; assay type: ADME, organism-based; parameters: dose 10 mg/kg, route oral; conditions: read-out: Drug uptake
[24] = Drug level in brain of Abcb1a/1b (-/-) FVB mouse at 10 mg/kg, po after 1 hr by liquid chromatography-tandem mass spectrometry; assay type: ADME, organism-based; parameters: dose 10 mg/kg, route oral; conditions: read-out: Drug uptake
[25] = Drug level in brain of Abcb1a/1b;Abcg2 (-/-) FVB mouse at 10 mg/kg, po after 1 hr by liquid chromatography-tandem mass spectrometry; assay type: ADME, organism-based; parameters: dose 10 mg/kg, route oral; conditions: read-out: Drug uptake
[26] = Drug level in brain of FVB mouse at 10 mg/kg, po after 1 hr by liquid chromatography-tandem mass spectrometry; assay type: ADME, organism-based; parameters: dose 10 mg/kg, route oral; conditions: read-out: Drug uptake

`CNC(=O)c1ccccc1Sc1ccc2c(/C=C/c3ccccn3)n[nH]c2c1` [AXITINIB] gave a concentration at 4 h [1] of 250 ng/g, a concentration at 4 h [2] of 47 ng/g and a concentration at 4 h [3] of 7 ng/g. The concentration at 4 h [4] was 6 ng/g, the AUC(0-t) at 4 h [5] was 4950 ng·h/mL and the AUC(0-t) at 4 h [6] was 3950 ng·h/mL. The AUC(0-t) at 4 h [7] was 2680 ng·h/mL, the AUC(0-t) at 4 h [8] was 4670 ng·h/mL and the Ratio (Brain [9]) was 0.8. For the same compound, the Ratio (Brain [10]) was 6.3, the Ratio (Brain [11]) was 19.6 and the Ratio (Brain [12]) was 1.1. For the same compound, the Ratio (Brain [13]) was 7.9, the Ratio (Brain [14]) was 42.4 and the Drug transport [15] was “Not Active”. For the same compound, the efflux ratio at 1 µM [16] was 1.4, the Drug transport [17] was “Not Active” and the efflux ratio at 1 µM (ABCB1) was 5.3. The efflux ratio at 1 µM (ABCG2) was 1.3, the Ratio [18] was 3.4 and the AUC(0-t) at 1 h [19] was 1090 ng·h/mL. The AUC(0-t) at 1 h [20] was 1760 ng·h/mL, the AUC(0-t) at 1 h [21] was 950 ng·h/mL and the AUC(0-t) at 1 h [22] was 1400 ng·h/mL. It also gave a concentration at 1 h [23] of 80 ng/g, a concentration at 1 h [24] of 640 ng/g and a concentration at 1 h [25] of 1980 ng/g. The concentration at 1 h [26] was 100 ng/g.

Source: ChEMBL document CHEMBL3525977, “Differential impact of P-glycoprotein (ABCB1) and breast cancer resistance protein (ABCG2) on axitinib brain accumulation and oral plasma pharmacokinetics” (Drug Metab Dispos, 2011)
